Measurements as given in US20140323504A1, “Pyrazolo[4,3-c]Pyridine Derivatives As Kinase Inhibitors” (Cellzome Limited, priority 2011, published 2014).

What was measured:
ITK = target: T1, ITK (Homo sapiens, UniProt Q08881); assay: Radiometric protein kinase assay (33PanQinase, ProQinase), ITK; format: biochemical; conditions: ATP at apparent Km (1.0 μM); for IC50: read-out: ITK enzyme assay IC50
T1 construct: purchased ProQinase GmbH, Freiburg, Germany
T1 sequence (Q08881 1-620): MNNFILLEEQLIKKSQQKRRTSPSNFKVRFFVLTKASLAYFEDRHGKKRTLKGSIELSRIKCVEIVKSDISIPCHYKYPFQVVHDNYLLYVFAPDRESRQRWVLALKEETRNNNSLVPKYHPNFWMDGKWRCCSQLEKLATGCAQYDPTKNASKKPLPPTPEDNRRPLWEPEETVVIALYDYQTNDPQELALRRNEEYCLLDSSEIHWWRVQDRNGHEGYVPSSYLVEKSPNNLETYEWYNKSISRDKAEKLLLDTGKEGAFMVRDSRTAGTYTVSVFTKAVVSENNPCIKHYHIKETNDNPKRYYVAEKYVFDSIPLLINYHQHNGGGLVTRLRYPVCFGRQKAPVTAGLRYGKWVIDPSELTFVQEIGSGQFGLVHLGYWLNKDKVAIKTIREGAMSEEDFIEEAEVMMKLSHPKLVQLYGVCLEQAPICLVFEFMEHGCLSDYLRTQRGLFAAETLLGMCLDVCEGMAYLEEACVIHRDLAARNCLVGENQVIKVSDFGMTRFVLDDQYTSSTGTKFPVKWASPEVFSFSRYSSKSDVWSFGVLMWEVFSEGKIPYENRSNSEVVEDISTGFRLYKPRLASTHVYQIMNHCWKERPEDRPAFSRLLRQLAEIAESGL
Procedure: (§1) A radiometric protein kinase assay (^33PanQinase® Activity Assay; ProQinase GmbH, Freiburg, Germany) was used for measuring the kinase activity of the protein kinases BLK, BTK, ITK and JAK3. All kinase assays were performed in 96-well FlashPlates™ from PerkinElmer (Boston, Mass., USA) in a 50 μl reaction volume. The reaction cocktail was pipetted in four steps in the following order: • 20 μl of assay buffer (standard buffer) • 5 μl of ATP solution (in H2O) • 5 μl of test compound (in 10% DMSO) • 10 μl of substrate/10 μl of enzyme solution (premixed)
(§2) The reaction cocktails were incubated at 30° C. for 60 minutes. The reaction was stopped with 50 μl of 2% (v/v) H3PO4, plates were aspirated and washed two times with 200 μl 0.9% (w/v) NaCl. Incorporation of ^33Pi was determined with a microplate scintillation counter (Microbeta, Wallac). All assays were performed with a BeckmanCoulter/SAGIAN™ Core System.

JAK3 = target: T2, JAK3 (Homo sapiens, UniProt P52333); assay: Radiometric protein kinase assay (33PanQinase, ProQinase), JAK3; format: biochemical; parameters: endogenous in cells; host or cells: mixed Molt4/Ramos cell lysate (1:2); conditions: read-out: JAK3 enzyme assay IC50
T2 sequence (P52333 1-1124): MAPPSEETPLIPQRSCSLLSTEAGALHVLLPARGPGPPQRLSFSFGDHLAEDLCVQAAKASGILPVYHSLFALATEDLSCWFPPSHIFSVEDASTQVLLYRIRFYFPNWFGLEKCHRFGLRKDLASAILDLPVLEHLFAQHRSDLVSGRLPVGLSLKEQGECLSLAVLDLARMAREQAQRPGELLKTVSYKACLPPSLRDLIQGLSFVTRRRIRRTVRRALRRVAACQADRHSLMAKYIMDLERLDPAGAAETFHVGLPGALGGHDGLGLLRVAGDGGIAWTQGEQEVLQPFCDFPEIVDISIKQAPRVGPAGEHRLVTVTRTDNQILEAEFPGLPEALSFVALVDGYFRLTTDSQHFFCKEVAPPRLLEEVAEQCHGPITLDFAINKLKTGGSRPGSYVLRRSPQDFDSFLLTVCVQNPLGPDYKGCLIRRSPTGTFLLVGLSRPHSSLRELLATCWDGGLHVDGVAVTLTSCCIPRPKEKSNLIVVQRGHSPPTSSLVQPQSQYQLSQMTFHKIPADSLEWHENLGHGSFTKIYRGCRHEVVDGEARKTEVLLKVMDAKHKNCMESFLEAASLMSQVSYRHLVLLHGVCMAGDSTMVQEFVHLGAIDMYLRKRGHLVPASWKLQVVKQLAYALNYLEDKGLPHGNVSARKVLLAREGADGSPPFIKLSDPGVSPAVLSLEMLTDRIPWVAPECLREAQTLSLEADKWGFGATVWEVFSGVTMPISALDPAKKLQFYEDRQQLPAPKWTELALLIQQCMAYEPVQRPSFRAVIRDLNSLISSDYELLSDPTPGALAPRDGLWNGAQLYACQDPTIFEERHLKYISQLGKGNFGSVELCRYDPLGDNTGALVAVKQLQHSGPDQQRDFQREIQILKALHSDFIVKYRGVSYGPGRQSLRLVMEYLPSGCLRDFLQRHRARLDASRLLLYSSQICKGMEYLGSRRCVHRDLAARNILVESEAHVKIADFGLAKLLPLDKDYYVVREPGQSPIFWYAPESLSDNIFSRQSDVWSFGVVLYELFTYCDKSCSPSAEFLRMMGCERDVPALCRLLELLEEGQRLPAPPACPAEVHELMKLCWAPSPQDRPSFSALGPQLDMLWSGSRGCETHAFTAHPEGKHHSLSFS
Procedure: as §1, §2

Row | IC50 (ITK) | IC50 (JAK3) | ITK enzyme assay IC50 (ITK) | SMILES
1 | 230 nM | 3 nM | – | C=CC(=O)Nc1cccc(Cn2ncc3cnc(Nc4cnn(C)c4)nc32)c1 [Example 1, N-(3-((6-((1-Methyl-1H-pyrazol-4-yl)amino)-1H-pyrazolo[3,4-d]pyrimidin-1-yl)methyl)phenyl)acrylamide]
2 | 80 nM | 7 nM | – | C=CS(=O)(=O)Nc1cccc(Cn2ncc3cnc(Nc4cnn(C)c4)nc32)c1 [Example 4, N-(3-((6-((1-Methyl-1H-pyrazol-4-yl)amino)-1H-pyrazolo[3,4-d]pyrimidin-1-yl)methyl)phenyl)ethenesulfonamide]
3 | – | 290 nM | inactive | CC(=O)Nc1cccc(Cn2ncc3cnc(Nc4cnn(C)c4)nc32)c1 [compound 2, N-(3-((6-((1-methyl-1H-pyrazol-4-yl)amino)-1H-pyrazolo[3,4-d]pyrimidin-1-yl)methyl)phenyl)acetamide, reference compound]
4 | 3 nM | 4 nM | – | C#CC(=O)Nc1cccc(Cn2ncc3cnc(Nc4cnn(C)c4)nc32)c1 [Example 3, N-(3-((6-((1-Methyl-1H-pyrazol-4-yl)amino)-1H-pyrazolo[3,4-d]pyrimidin-1-yl)methyl)phenyl)propiolamide]
